# Results published in PubChem BioAssay AID1985 (Southern Research Specialized Biocontainment Screening …, 2009).
# “And” between values parts separate entries of the source, which are not always exact repeats. Equal values may be shown once.
# Tested on: S. Typhi PhoP-promoter GFP reporter, fluorescence, 4 h
# Assay: modified counter assay using GFP fluorescence, PhoP regulon inhibitor project, dose response (AID 1985)
row,Compound,IC50
1,c1ccc(Nc2nc(NCc3ccco3)c3ccccc3n2)cc1,24 µM
2,CN1CCN(CCCN2c3ccccc3Sc3ccc(Cl)cc32)CC1,132 µM and 79.2 µM
3,CC[C@H]1OC(=O)[C@H](C)[C@@H](O[C@H]2C[C@@](C)(OC)[C@@H](O)[C@H](C)O2)[C@H](C)[C@@H](O[C@@H]2O[C@H](C)C[C@H](N(C)C)[C@H]2O)[C@](C)(OC)C[C@@H](C)C(=O)[C@H](C)[C@@H](O)[C@]1(C)O,125 µM
4,CCOC(=O)N1CCN(CCC(=O)c2ccc(Cl)cc2)CC1,108 µM
5,CN(C)CC/C=C1/c2cc(F)ccc2Sc2ccc(Cl)cc21,84.9 µM
6,CNc1nc(SC)n(C)c(=O)c1N=O,80.3 µM
7,CCCC(=O)NC(c1ccco1)c1cc([N+](=O)[O-])c2cccnc2c1O (stereo not given),8.65 µM
8,Cc1ccc(C[n+]2c(-c3ccc(C)cc3)cc(-c3ccc(C)cc3)cc2-c2ccc(C)cc2)cc1,15.6 µM
9,CCN(CCNCC(O)COc1ccccc1C(C)C)c1cccc(C)c1 (stereo not given),72.6 µM
10,OCCNc1nc(Nc2ccc(Br)cc2)nc2ccccc12,19 µM
11,O=C(CNCCC1=CCCCC1)Nc1ccc(N2CCCCCC2)cc1,54.2 µM
12,Cc1ccc(C(=O)N/C(=C\c2ccc(-c3ccc(Cl)cc3)o2)C(=O)NCCCN(C)C)cc1,85.8 µM
13,O=C(c1ccccc1)c1c2c(cc3sc4ccccc4[n+]13)-c1cccc3cccc-2c13,77.3 µM
14,Nc1ncn(C2O[C@H](CO)[C@@H](O)[C@H]2O)c(=O)n1 (stereo not given in full),10.1 µM
15,O=C(N/N=C/c1cc([N+](=O)[O-])ccc1O)C1CC1,14.9 µM
16,C#CCOCCOCCOCCNc1nc(N2CCN(C(=O)CCCCCCCCCCNC(=O)[C@@H](CCSC)n3cc(CCO)nn3)CC2)nc(N2CCN(C(=O)CCCCCCCCCCNC(=O)[C@H]([C@@H](C)CC)n3cc(CCCCCN)nn3)CC2)n1,110 µM
17,Nc1nc2ccccc2n1CCOc1ccccc1Cl,63.1 µM
18,O=C(N/N=C/c1ccccn1)c1cccs1,42.8 µM
19,O=C(CSc1ccccn1)N/N=C/c1c[nH]c2ccccc12,133 µM
20,Cc1c(Cl)cccc1Nc1nc(NCCO)c2ccccc2n1,38.1 µM
21,N#C/C(=C\c1ccc[nH]1)C(=O)NC1CC1,63.7 µM
22,O=C(CC(=O)c1c(F)cccc1Cl)c1ccccc1O,41.4 µM
23,CC1(C)N=C(N)N=C(N)N1c1ccc(Oc2ccc(Cl)cc2)c(Cl)c1,43 µM
24,CC1CCc2c(N3CCC(O)CC3)c(F)cc3c(=O)c(C(=O)O)cn1c23 (stereo not given),4.44 µM
25,CN1CCC(OC(=O)c2ccc(Br)cc2)CC1,58.3 µM
26,CCN1CCN(C(=O)c2cc3cc(F)ccc3[nH]2)CC1,97.5 µM
27,Fc1ccc(CCNCc2ccc(Cl)c(Cl)c2)cc1,68.4 µM
28,CCCCOc1ccc(NC2=NC3(CCCCC3)N=C(N)N2)cc1,20.1 µM

row,Compound,IC50
1,O=C(NC(=S)NNC(=O)c1cccs1)c1ccco1,39.7 µM
2,Cc1cccn2c(=O)c(C=O)c(Cl)nc12,140 µM
3,O=c1c2c([nH]c3ccccc13)CCCCC2,78.4 µM
4,CCCCn1c(NS(=O)(=O)c2ccccc2)c(C(=O)OCC)c2nc3ccccc3nc21,110 µM
5,O=C(Cn1cncn1)N/N=C/c1ccccc1O,103 µM
6,O=C(Oc1c(Cl)cc(Cl)c2cccnc12)c1ccco1,11.9 µM
7,CN1CCN(C2Cc3cc(Cl)ccc3Sc3cc(F)ccc32)CC1 (stereo not given),37.5 µM
8,NC(N)=N/N=C/c1ccc(OCc2ccccc2Cl)cc1,33.4 µM
9,CCCCc1c(O)nc(SCC(=O)Nc2ccc3c(c2)CCC3)[nH]c1=O,30.6 µM
10,Cc1c2ccncc2c(C)c2c1[nH]c1ccccc12,32.9 µM
11,CN(C)C1C(=O)C(C(N)=O)=C(O)C2(O)C(=O)C3=C(O)c4c(O)cccc4C(C)(O)C3CC12 (stereo not given),2.08 µM
12,COc1cccc(Nc2nc(NCCO)c3ccccc3n2)c1,84.5 µM
13,COC12C(COC(N)=O)C3=C(C(=O)C(C)=C(N)C3=O)N1CC1C2N1C (stereo not given),31.2 µM
14,COc1ccc(CNCC(O)COc2ccc(C(C)(C)c3ccccc3)cc2)cc1 (stereo not given),37.1 µM
15,CC(C)Oc1ccc(Cc2cnc(N)nc2N)cc1,50.3 µM
16,O=C(Nc1nc(-c2ccccn2)cs1)c1ccc(Cl)s1,21.5 µM
17,CCCCCc1ccc(OCCC[n+]2ccccc2)c(CCCCC)c1,82.7 µM
18,CCCCCCCCCCOC(=O)Cn1c(COc2ccccc2C)[n+](C)c2ccccc21,21.3 µM
19,COc1cc(/C=C/[N+](=O)[O-])ccc1O,53.4 µM
20,C#CCOCCOCCOCCNc1nc(N2CCN(C(=O)CCCCCCCCCCNC(=O)[C@H](CCCCN)n3cc(C[C@@H](C)CC)nn3)CC2)nc(N2CCN(C(=O)CCCCCCCCCCNC(=O)[C@H](CCCN=C(N)N)n3cc(C[C@@H](C)CC)nn3)CC2)n1,68.2 µM
21,COc1c(N2CCN(C(=S)Nc3ccc(F)cc3)C(C)C2)c(F)cc2c(=O)c(C(=O)O)cn(C3CC3)c12 (stereo not given),0.581 µM
22,Fc1ccc(Nc2nnc(C(F)(F)F)s2)cc1Cl,38 µM
23,Cc1cc(N/N=C/c2ccc(O)cc2)c2cccc(C)c2n1,80.9 µM
24,OCCCCNCc1ccc(OCc2ccc(Cl)cc2Cl)cc1,133 µM
25,CN1CCN(C2=Cc3cc(Cl)ccc3Sc3cc(F)ccc32)CC1,137 µM
26,CCOC(=O)N1CCN(Cc2cc(Cl)c3cccnc3c2O)CC1,37.8 µM
27,Oc1ccc(CN2CCCc3ccccc32)c2cccnc12,36.1 µM
